# Measured values published in publication PMC7440668, “Nitrogen coordinated import and export of arginine across the yeast vacuolar membrane” (PLoS Genetics, 2020).
# How the values were obtained:
# Type in all cases: biochemical
# Ypq2 [1] = target: T1, Ypq2 (Saccharomyces cerevisiae, UniProt Q06328); test: inhibition of Ypq2-dependent […]-Arg uptake into isolated vacuoles, […] min; conditions: 50 μM 14C-Arg, no ATP; competitor added simultaneously
# T1 construct: native full-length protein in isolated intact vacuoles; ypq1-2-3 triple-mutant background subtracted from ypq1-3 double-mutant
# T1 sequence (Q06328 1-317): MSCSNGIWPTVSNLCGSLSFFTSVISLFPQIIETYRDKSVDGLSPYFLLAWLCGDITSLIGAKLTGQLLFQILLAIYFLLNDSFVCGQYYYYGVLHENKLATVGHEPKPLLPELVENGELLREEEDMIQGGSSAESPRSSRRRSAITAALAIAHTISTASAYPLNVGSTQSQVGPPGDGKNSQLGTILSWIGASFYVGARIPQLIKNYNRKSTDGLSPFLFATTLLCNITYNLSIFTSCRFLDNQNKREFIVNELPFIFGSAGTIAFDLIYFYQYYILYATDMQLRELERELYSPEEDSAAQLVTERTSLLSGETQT
# Ypq2 [2] = target: T1, Ypq2; test: as above; conditions: read-out: % inhibition at 5 mM
# Avt1 = target: T2, Avt1 (Saccharomyces cerevisiae, UniProt P47082); test: 3H-L-tyrosine uptake into isolated intact vacuoles, wild type versus avt1 deletion; conditions: 50 μM 3H-tyrosine, 4 mM ATP, 27 °C; needs H+ gradient; labelled compound
# T2 construct: native full-length protein in isolated intact vacuoles; wild type versus avt1 deletion mutant
# T2 sequence (P47082 1-602): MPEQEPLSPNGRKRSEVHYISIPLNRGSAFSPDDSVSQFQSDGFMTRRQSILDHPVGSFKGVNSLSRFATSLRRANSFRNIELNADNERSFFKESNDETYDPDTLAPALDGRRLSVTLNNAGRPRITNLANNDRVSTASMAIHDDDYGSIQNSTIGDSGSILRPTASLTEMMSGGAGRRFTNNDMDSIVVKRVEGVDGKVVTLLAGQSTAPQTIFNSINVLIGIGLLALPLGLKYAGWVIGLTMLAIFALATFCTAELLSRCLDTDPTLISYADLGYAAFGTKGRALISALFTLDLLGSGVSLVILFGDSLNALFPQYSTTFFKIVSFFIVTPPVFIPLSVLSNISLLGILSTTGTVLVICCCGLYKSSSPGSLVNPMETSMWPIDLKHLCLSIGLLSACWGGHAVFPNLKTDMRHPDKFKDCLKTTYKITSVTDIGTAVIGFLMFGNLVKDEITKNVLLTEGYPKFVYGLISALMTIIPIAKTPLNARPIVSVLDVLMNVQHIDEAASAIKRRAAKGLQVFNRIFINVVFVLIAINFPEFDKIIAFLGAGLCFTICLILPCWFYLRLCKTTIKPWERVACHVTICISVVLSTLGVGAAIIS
SMILES,% inhibition at 5 mM (Ypq2 [1]),other results
N=C(N)NOCC[C@H](N)C(=O)O [Canavanine],"Canavanine, the D-Arg and the L- and D-isomers of His completely inhibited the uptake",
N=C(N)NCCC[C@@H](N)C(=O)O [D-Arg],"Canavanine, the D-Arg and the L- and D-isomers of His completely inhibited the uptake",
N[C@H](Cc1c[nH]cn1)C(=O)O [D-isomer of His],"Canavanine, the D-Arg and the L- and D-isomers of His completely inhibited the uptake",
N[C@@H](Cc1cnc[nH]1)C(=O)O [His],"Canavanine, the D-Arg and the L- and D-isomers of His completely inhibited the uptake",
NCCCC[C@H](N)C(=O)O [Lys],,inhibition at 5000 µM (Ypq2 [2]): ~50%
NCCC[C@H](N)C(=O)O [ornithine],,inhibition at 5000 µM (Ypq2 [2]): ~50%
N[C@@H](Cc1ccc(O)cc1)C(=O)O [tyrosine],,"3H-L-tyrosine uptake into isolated intact vacuoles, wild type versus avt1 deleti (Avt1): Nor was it detected in vacuoles isolated from the avt1Δ mutant"
